Patent US12492173B2, “Herbicidal substituted N-tetrazolyl aryl carboxamides” (Bayer Aktiengesellschaft, priority 2019, dated 2025)

Assays:
Assay type in all cases: in vivo
[1] = test system: Viola tricolor; test: Post-emergence herbicidal action, VIOTR; parameters: key: % herbicidal action vs untreated; 100 = plants died, 0 = like control; details: for herbicidal action VIOTR: Dosage 80 g/ha; for Herbicidal action against VIOTR: post-emergence, dosage 80 g/ha
In short: (§1)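 Greenhouse post-emergence test: weeds sown in sandy loam were sprayed once at one leaf, 2 to 3 weeks from sowing, with aqueous WP or EC preparations carrying 0.2% wetting agent. Effect is scored visually after about 3 weeks.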

[2] = test system: Matricaria inodora; test: Post-emergence herbicidal action, MATIN; parameters: key: % herbicidal action vs untreated; 100 = plants died, 0 = like control; details: for herbicidal action MATIN: Dosage 80 g/ha
In short: as §1

[3] = test system: Veronica persica; test: Pre-emergence herbicidal action, VERPE; details: dosage 320 g/ha
In short: (§2)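 Pre-emergence soil spray over sandy loam-covered seeds; greenhouse 3 weeks; % visual damage (0% = control, 100% = dead).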

[4] = test system: Matricaria inodora; test: Pre-emergence herbicidal action, MATIN; details: dosage 320 g/ha
In short: as §2

[5] = test system: Amaranthus retroflexus; test: Post-emergence herbicidal action, AMARE; parameters: key: % herbicidal action vs untreated; 100 = plants died, 0 = like control; details: for herbicidal action AMARE: Dosage 80 g/ha; for Herbicidal action against AMARE: post-emergence, dosage 80 g/ha
In short: as §1

[6] = test system: Stellaria media; test: Post-emergence herbicidal action, STEME; parameters: key: % herbicidal action vs untreated; 100 = plants died, 0 = like control; details: for herbicidal action STEME: Dosage 80 g/ha; for Herbicidal action against STEME: post-emergence, dosage 80 g/ha
In short: as §1

[7] = test system: Abutilon theophrasti; test: Post-emergence herbicidal action, ABUTH; parameters: key: % herbicidal action vs untreated; 100 = plants died, 0 = like control; details: for herbicidal action ABUTH: Dosage 80 g/ha
In short: as §1

[8] = test system: Veronica persica; test: Post-emergence herbicidal action, VERPE; parameters: key: % herbicidal action vs untreated; 100 = plants died, 0 = like control; details: for herbicidal action VERPE: Dosage 80 g/ha
In short: as §1

[9] = test system: Echinochloa crus-galli; test: Post-emergence herbicidal action, ECHCG; parameters: key: % herbicidal action vs untreated; 100 = plants died, 0 = like control; details: for herbicidal action ECHCG: Dosage 80 g/ha; for Herbicidal action against ECHCG: post-emergence, dosage 80 g/ha
In short: as §1

[10] = test system: Pharbitis purpurea; test: Post-emergence herbicidal action, PHBPU; details: for herbicidal action PHBPU: Dosage 80 g/ha; for Herbicidal action against PHBPU: post-emergence, dosage 80 g/ha
In short: as §1

[11] = test system: Setaria viridis; test: Post-emergence herbicidal action, SETVI; parameters: key: % herbicidal action vs untreated; 100 = plants died, 0 = like control; details: Dosage 80 g/ha
In short: as §1

[12] = test system: Cyperus esculentus; test: Post-emergence herbicidal action, CYPES; parameters: key: % herbicidal action vs untreated; 100 = plants died, 0 = like control; details: Dosage 80 g/ha
Protocol: (§3) [table] 2. Post-Emergence Herbicidal Action Against Harmful Plants Seeds of monocotyledonous and dicotyledonous weed and crop plants are laid out in sandy loam soil in wood-fiber pots, covered with soil and cultivated in a greenhouse under good growth conditions. 2 to 3 weeks after sowing, the test plants are treated at the one-leaf stage. The compounds of the invention, formulated in the form of wettable powders (WP) or as emulsion concentrates (EC), are then sprayed onto the green parts of the plants in the form of an aqueous suspension or emulsion at a water application rate equating to 600 to 800 l/ha, with addition of 0.2% wetting agent. After the test plants have been left to stand in the greenhouse under optimal growth conditions for about 3 weeks, the action of the preparations is assessed visually in comparison to untreated controls (herbicidal action in percent (%): 100% activity=the plants have died, 0% activity=like control plants). […] The tables below illustrate, in an exemplary manner, the post-emergence herbicidal action of the compounds according to the invention, the herbicidal activity being stated in percent. In the experiments that follow, herbicidal action of numerous inventive compounds and the known compounds that are structurally closest from D1 (WO 2012/028579 A1) and D2 (WO 2018/202535 A1) were compared under the above-specified conditions by the pre-emergence and post-emergence method. The example numbers given in the tables relate to the compounds disclosed in the respective documents. In addition to the compounds disclosed in D1 and D2, the following compounds V-1 to V-14 that are encompassed by D1 or D2 but are not compounds specified therein were used in the comparative experiments: • V-1: 2-(methylsulfanyl)-3-(methylsulfinyl)-N-(1-methyl-1H-tetrazol-5-yl)-4-(trifluoromethyl)benzamide • V-2: 2-(methylsulfanyl)-3-(methylsulfonyl)-N-(1-methyl-1H-tetrazol-5-yl)-4-(trifluoromethyl)benzamide • V-3: 2,3-bis(ethylsulfanyl)-N-(1-methyl-1H-tetrazol-5-yl)-4-(trifluoromethyl)benzamide • V-4: 2-chloro-3-(ethylsulfanyl)-N-(1-methyl-1H-tetrazol-5-yl)-4-(trifluoromethyl)benzamide • V-5: 2-chloro-4-iodo-3-(methylsulfanyl)-N-(1-methyl-1H-tetrazol-5-yl)benzamide • V-6: 2-chloro-4-iodo-3-(methylsulfinyl)-N-(1-methyl-1H-tetrazol-5-yl)benzamide • V-7: 2-chloro-4-iodo-3-(methylsulfonyl)-N-(1-methyl-1H-tetrazol-5-yl)benzamide • V-8: 2-bromo-3-(methylsulfanyl)-N-(1-methyl-1H-tetrazol-5-yl)-4-(trifluoromethyl)benzamide • V-9: 2-bromo-3-(methylsulfinyl)-N-(1-methyl-1H-tetrazol-5-yl)-4-(trifluoromethyl)benzamide • V-10: 2-bromo-3-(methylsulfonyl)-N-(1-methyl-1H-tetrazol-5-yl)-4-(trifluoromethyl)benzamide • V-11: 2-bromo-3-(ethylsulfanyl)-N-(1-methyl-1H-tetrazol-5-yl)-4-(trifluoromethyl)benzamide • V-12: 2-bromo-3-(ethylsulfinyl)-N-(1-methyl-1H-tetrazol-5-yl)-4-(trifluoromethyl)benzamide • V-13: 2-bromo-3-(ethylsulfonyl)-N-(1-methyl-1-1H-tetrazol-5-yl)-4-(trifluoromethyl)benzamide • V-14: 2-cyclopropyl-3-(ethylsulfanyl)-N-(1-methyl-1H-tetrazol-5-yl)-4-(trifluoromethyl)benzamide Herbicidal Pre-Emergence Action: […]

[13] = test system: Amaranthus retroflexus; test: Pre-emergence herbicidal action, AMARE; details: dosage 320 g/ha
In short: as §2

[14] = test system: Abutilon theophrasti; test: Pre-emergence herbicidal action, ABUTH; details: dosage 320 g/ha
In short: as §2

[15] = test system: Stellaria media; test: Pre-emergence herbicidal action, STEME; details: dosage 320 g/ha
In short: as §2

[16] = test system: Echinochloa crus-galli; test: Pre-emergence herbicidal action, ECHCG; details: dosage 320 g/ha
In short: as §2

[17] = test system: Pharbitis purpurea; test: Pre-emergence herbicidal action, PHBPU; details: dosage 320 g/ha
From the text: (§4) 1. Pre-Emergence Herbicidal Action Against Harmful Plants Seeds of monocotyledonous and dicotyledonous weed plants and crop plants are laid out in sandy loam soil in wood-fiber pots and covered with soil. The compounds of the invention, formulated in the form of wettable powders (WP) or as emulsion concentrates (EC), are then applied to the surface of the covering soil in the form of an aqueous suspension or emulsion at a water application rate equating to 600 to 800 l/ha, with addition of 0.2% wetting agent. After the treatment, the pots are placed in a greenhouse and kept under good growth conditions for the trial plants. The damage to the test plants is scored visually after a test period of 3 weeks by comparison with untreated controls (herbicidal activity in percent (%): 100% activity=the plants have died, 0% activity=like control plants). […] The tables below illustrate, in an exemplary manner, the […] herbicidal action of the compounds according to the invention, the herbicidal activity being stated in percent. [table] In the experiments that follow, herbicidal action of numerous inventive compounds and the known compounds that are structurally closest from D1 (WO 2012/028579 A1) and D2 (WO 2018/202535 A1) were compared under the above-specified conditions by the pre-emergence and post-emergence method. The example numbers given in the tables relate to the compounds disclosed in the respective documents. In addition to the compounds disclosed in D1 and D2, the following compounds V-1 to V-14 that are encompassed by D1 or D2 but are not compounds specified therein were used in the comparative experiments: • V-1: 2-(methylsulfanyl)-3-(methylsulfinyl)-N-(1-methyl-1H-tetrazol-5-yl)-4-(trifluoromethyl)benzamide • V-2: 2-(methylsulfanyl)-3-(methylsulfonyl)-N-(1-methyl-1H-tetrazol-5-yl)-4-(trifluoromethyl)benzamide • V-3: 2,3-bis(ethylsulfanyl)-N-(1-methyl-1H-tetrazol-5-yl)-4-(trifluoromethyl)benzamide • V-4: 2-chloro-3-(ethylsulfanyl)-N-(1-methyl-1H-tetrazol-5-yl)-4-(trifluoromethyl)benzamide • V-5: 2-chloro-4-iodo-3-(methylsulfanyl)-N-(1-methyl-1H-tetrazol-5-yl)benzamide • V-6: 2-chloro-4-iodo-3-(methylsulfinyl)-N-(1-methyl-1H-tetrazol-5-yl)benzamide • V-7: 2-chloro-4-iodo-3-(methylsulfonyl)-N-(1-methyl-1H-tetrazol-5-yl)benzamide • V-8: 2-bromo-3-(methylsulfanyl)-N-(1-methyl-1H-tetrazol-5-yl)-4-(trifluoromethyl)benzamide • V-9: 2-bromo-3-(methylsulfinyl)-N-(1-methyl-1H-tetrazol-5-yl)-4-(trifluoromethyl)benzamide • V-10: 2-bromo-3-(methylsulfonyl)-N-(1-methyl-1H-tetrazol-5-yl)-4-(trifluoromethyl)benzamide • V-11: 2-bromo-3-(ethylsulfanyl)-N-(1-methyl-1H-tetrazol-5-yl)-4-(trifluoromethyl)benzamide • V-12: 2-bromo-3-(ethylsulfinyl)-N-(1-methyl-1H-tetrazol-5-yl)-4-(trifluoromethyl)benzamide • V-13: 2-bromo-3-(ethylsulfonyl)-N-(1-methyl-1-1H-tetrazol-5-yl)-4-(trifluoromethyl)benzamide • V-14: 2-cyclopropyl-3-(ethylsulfanyl)-N-(1-methyl-1H-tetrazol-5-yl)-4-(trifluoromethyl)benzamide Herbicidal Pre-Emergence Action: […]

[18] = test system: Viola tricolor; test: Pre-emergence herbicidal action, VIOTR; details: dosage 320 g/ha
In short: as §2

[19] = test system: Polygonum convolvulus; test: Pre-emergence herbicidal action, POLCO; details: dosage 320 g/ha, scored visually after 3 weeks vs untreated controls (100% = plants have died)
From the text: as §4

[20] = test system: Setaria viridis; test: Pre-emergence herbicidal action, SETVI; details: dosage 320 g/ha, scored visually after 3 weeks vs untreated controls (100% = plants have died)
From the text: as §4

[21] = test system: Alopecurus myosuroides; test: Post-emergence herbicidal action, ALOMY; parameters: key: % herbicidal action vs untreated; 100 = plants died, 0 = like control; details: Dosage 80 g/ha
Protocol: as §3

[22] = scored visually after 3 weeks vs untreated controls (100% = plants have died)

| SMILES | herbicidal action VIOTR [1] | herbicidal action MATIN [2] | herbicidal action VERPE [3] | herbicidal action MATIN [4] | herbicidal action AMARE [5] | herbicidal action STEME [6] | herbicidal action ABUTH [7] | herbicidal action VERPE [8] | herbicidal action ECHCG [9] | herbicidal action PHBPU [10] | herbicidal action SETVI [11] | herbicidal action CYPES [12] | herbicidal action AMARE [13] | Herbicidal action against VIOTR [1] | Herbicidal action against AMARE [5] | Herbicidal action against STEME [6] | Herbicidal action against ECHCG [9] | Herbicidal action against PHBPU [10] | herbicidal action STEME [15] | further results |
| --- | --- | --- | --- | --- | --- | --- | --- | --- | --- | --- | --- | --- | --- | --- | --- | --- | --- | --- | --- | --- |
| Cc1c(C(=O)Nc2nnnn2C)ccc(S(C)(=O)=O)c1CS(C)(=O)=O [Example 1-39] | 90 | 90 | 90% | 100% | 90 | 80 | 90 | 90 | 80 | 80 | 90 | 80 | 100% | – | – | – | – | – | – | – |
| Cn1nnnc1NC(=O)c1ccc(S(C)(=O)=O)c(CS(C)(=O)=O)c1Cl [Example 1-280] | – | – | – | – | – | – | – | – | – | – | – | – | – | 90 | 90 | 100 | 90 | 90 | – | herbicidal activity ABUTH [14, 22]: 90%; herbicidal activity STEME [15, 22]: 90%; herbicidal activity ECHCG [16, 22]: 100%; herbicidal activity VERPE [3, 22]: 100%; herbicidal activity PHBPU [17, 22]: 80%; herbicidal activity MATIN [4, 22]: 90%; herbicidal activity VIOTR [18, 22]: 90%; herbicidal activity POLCO [19]: 80%; herbicidal activity AMARE [13, 22]: 100%; herbicidal activity SETVI [20]: 80% |
| CCn1nnnc1NC(=O)c1ccc(S(C)(=O)=O)c(CSC)c1C [Example 2-37] | 100 | 80 | 100% | – | 90 | 100 | 80 | 100 | 100 | 80 | 100 | 80 | 100% | – | – | – | – | – | 90% | herbicidal action ECHCG [16]: 90%; herbicidal action ALOMY [21]: 80 |
| CCCn1nnnc1NC(=O)c1ccc(C(F)(F)F)c(CS(C)(=O)=O)c1S(C)(=O)=O [Example 3-199] | – | – | 100% | 100% | – | – | – | – | – | – | – | – | 90% | 90 | 80 | 80 | 80 | 90 | 80% | Herbicidal action against MATIN ([2]; post-emergence, dosage 80 g/ha): 80; herbicidal action ABUTH [14]: 100%; herbicidal action PHBPU [17]: 80%; Herbicidal action against ABUTH ([7]; post-emergence, dosage 80 g/ha): 90; Herbicidal action against VERPE ([8]; post-emergence, dosage 80 g/ha): 100; herbicidal action VIOTR [18]: 100% |
